From ChEMBL document CHEMBL4482315, “In vivo imaging of sulfotransferases” (2013)
Calls of active or inactive are those of the source. No cut-off for these calls is given here.

Tested on: Rattus norvegicus
Experiment: In-vivo substrate activity at SULT1A in brain of Sprague-Dawley rat with renal hypertension a at 0.5 to 2 mCi dosed via bolus injection measured after 60 mins post dose by microPET imaging method
Format: functional, organism-based
Details: tested as the 18F-labelled form

`O=[N+]([O-])c1cc(O)ccc1F` was tested, and the Activity was “Active”.
